PubChem BioAssay (NCI)
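Assay format: 96-well plates, 48-hour exposure. GI50 = concentration required for 50% inhibition of growth. TGI is the concentration that stops growth completely.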

Columns and labels:
Experiment in all cases: NCI anticancer screen, dose series, 48 h
[1] = system: CCRF-CEM leukemia
[2] = system: HS 578T breast
[3] = system: NCI-H460 lung
[4] = system: DU-145 prostate
[5] = system: MDA-MB-231 breast
[6] = system: HCC-2998 colon
[7] = system: MOLT-4 leukemia
[8] = system: NCI/ADR-RES ovarian
[9] = system: MDA-MB-435
[10] = system: SR leukemia
[11] = system: MDA-N
[12] = system: BT-549 breast

Structure (SMILES)	TGI [1]	TGI [2]	TGI [3]	TGI [4]	TGI [5]	TGI [6]	TGI [7]	TGI [8]	TGI [9]	TGI [10]	TGI [11]	TGI [12]	GI50 [1]	GI50 [2]	GI50 [3]	GI50 [4]	GI50 [6]	GI50 [8]	GI50 [9]	GI50 [12]
CCN(CCO)C(=O)C1(c2ccccc2)CCCCC1	> 10 µM	> 10 µM	> 10 µM	> 10 µM	> 10 µM	> 10 µM	> 10 µM	> 10 µM	> 10 µM	> 10 µM	–	–	–	–	–	–	–	–	–	–
Ic1ccc2c(c1)N(c1ccccc1)c1cc(N=c3ccc4nc5ccc(I)cc5n(-c5ccccc5)c-4c3)ccc1N2	> 100 µM	> 100 µM	> 100 µM	> 100 µM	> 100 µM	> 100 µM	> 100 µM	> 100 µM	94 µM	> 100 µM	> 100 µM	> 100 µM	–	–	–	–	–	–	–	–
OCCCNc1nc(=S)[nH]c2[nH]ncc12	> 100 µM	85.1 µM	> 100 µM	> 100 µM	–	> 100 µM	–	> 100 µM	> 100 µM	–	–	> 100 µM	34.7 µM	30.7 µM	30.5 µM	41.3 µM	22.3 µM	> 100 µM	45.5 µM	46.8 µM
CC(CCC(=O)O)(c1ccc(O)cc1)c1ccc(O)cc1	–	> 100 µM	> 100 µM	> 100 µM	> 100 µM	–	> 100 µM	> 100 µM	> 100 µM	> 100 µM	> 100 µM	> 100 µM	–	–	–	–	–	–	–	–
C[N+](C)(C)CCCSc1nc2ccccc2[nH]1	> 100 µM	> 100 µM	> 100 µM	> 100 µM	> 100 µM	> 100 µM	> 100 µM	> 100 µM	> 100 µM	–	> 100 µM	> 100 µM	–	–	–	–	–	–	–	–
O=S(=O)(O)C1=C2Sc3ccccc3N=C2c2ccccc2C1	24.3 µM	–	40 µM	–	–	31.4 µM	29.1 µM	–	–	20.6 µM	–	–	–	–	–	–	–	–	–	–
COc1ccc(CC2CCc3nc(N)nc(N)c3C2)cc1OC (centres undefined)	–	> 100 µM	> 48.6 µM	–	> 75.2 µM	> 47 µM	> 100 µM	16.3 µM	> 100 µM	> 100 µM	> 44 µM	51.7 µM	–	–	–	–	–	–	–	–
c1nc(N2CC2)c2cnn(C3CCCCO3)c2n1 (centres undefined)	> 100 µM	> 100 µM	> 100 µM	> 100 µM	> 100 µM	> 100 µM	> 100 µM	> 100 µM	> 100 µM	> 100 µM	> 100 µM	> 100 µM	–	–	–	–	–	–	–	–
CN(CCC(=O)O)C1=Nc2ccc(Cl)cc2C(c2ccccc2)=[N+]([O-])C1	> 100 µM	> 100 µM	> 100 µM	> 100 µM	> 100 µM	–	> 100 µM	> 100 µM	> 100 µM	> 100 µM	> 100 µM	> 100 µM	–	–	–	–	–	–	–	–
CCOC(=O)NC(=O)c1cn(CCNCCO)c(=O)[nH]c1=O	> 100 µM	–	> 100 µM	–	–	–	> 100 µM	–	–	> 100 µM	–	–	–	–	–	–	–	–	–	–
O=C(N/N=C/C=C/c1ccccc1)[C@H](O)[C@@H](O)C(=O)N/N=C/C=C/c1ccccc1	> 100 µM	–	> 100 µM	–	–	> 100 µM	> 100 µM	–	–	> 100 µM	–	–	–	–	–	–	–	–	–	–
C[C@]12CC[C@H](OC(=O)Cc3ccc(N(CCCl)CCCl)cc3)CC1=CC[C@@H]1[C@@H]2CC[C@]2(C)C(=O)CC[C@@H]12	–	> 100 µM	> 100 µM	> 100 µM	> 100 µM	> 100 µM	> 100 µM	> 100 µM	> 100 µM	> 100 µM	> 100 µM	> 100 µM	–	–	–	–	–	–	–	–
CN1CCN(c2ccc3[nH]c(-c4cc(O)c5c(nc(CO)n5C)c4O)nc3n2)CC1	58.6 µM	> 100 µM	> 100 µM	> 100 µM	63.1 µM	> 100 µM	48.2 µM	> 100 µM	48.3 µM	–	> 100 µM	> 100 µM	–	–	–	–	–	–	–	–
O=C(O)CCC(=O)Nc1ccc2ccccc2c1	> 100 µM	> 100 µM	> 100 µM	> 100 µM	> 100 µM	> 100 µM	> 100 µM	> 100 µM	> 100 µM	–	> 100 µM	> 100 µM	–	–	–	–	–	–	–	–
